Reference: US6465631B1, “Lipid a 4′ kinase” (Duke University, priority 1997, dated 2002)

Target: T1, lipid A 4′ kinase (Escherichia coli, UniProt P27300)
T1 construct: The first primer introduces a Nde I site at the start codon of orfE, and the second primer introduces a BamHl site downstream of the stop codon; made in house; host or cells: E. coli BLR(DE3)pLysS/pJK2 (pET3a, T7 promoter); Controls with chromosomal kinase only: BR7 membranes and BLR(DE3)pLysS/pET3a fractions
Experiment: 4′ kinase assay method II ([γ-32P]ATP donor, lipid acceptor, TLC)
Format: biochemical, E. coli
Conditions: for utilisation as substrate of the 4′ kinase (in words): recombinant, overexpressed 4′ kinase (BLR(DE3)pLysS/pJK2 membranes); for 32P from input [γ-32P]-ATP incorporated into 4′-phosphorylated product (yield): 0.6 μM [γ-32P]ATP, 100 μM lipid acceptor, 10 min, 30° C.
Description: FIG. 12: Effective phosphorylation of DS-1-P and DS-1-P analogs with recombinant, overproduced 4′ kinase. Washed membranes from strain BR7 and BLR(DE3)pLysS/pJK2 were used, as indicated, in 4′ kinase assays containing 100 μM of the indicated DS-1-P analog, 0.6 μM [γ-^32P] ATP, 50 mM Tris, pH 8.5, 5 mM MgCl2, 1% NP-40, 1 mg/ml cardiolipin and 0.5 mg/ml washed membranes. After a 10 minute incubation at 30° C., 5 μl of the reaction was spotted onto a Silica Gel 60 TLC plate and developed in chloroform:pyridine:formic acid:water (30:70:16:10 v/v). The plate was dried, exposed to a PhosphorImager screen and visualized using ImageQuant software. Arrows indicate the products of the reactions. If the native substrate DS-1-P is present in the reaction, [4′-^32P]-lipid IVA is formed. When 3-aza-DS-1-P, base-treated DS-1-P, or base-treated 3-aza-DS-1-P are present, 4′ phosphorylated products a, b and c are formed, respectively. The migration of each of these products is slower than the non-phosphorylated substrate analog, consistent with the phosphate incorporation. As in FIG. 9, BLR/pJK2 is an abbreviation for BLR(DE3)pLysS/pJK2, and NE indicates the no enzyme control. […] Minor ^32P containing lipids generated by membranes of BLR(DE3)pLysS/pJK2 in the absence of any acceptor substrate arise by the action of diglyceride kinase on endogenous glycerophospholipids (see especially Lane 6). The diglyceride kinase is inactivated by mutation in strain BR7 (Hampton et al, Methods in Enzymology 209:466 (1992)).
Assays for 4′ kinase activity. Two methods for analyzing 4′ kinase activity of various protein fractions were employed. The first (method I) utilizes DS-1-^32P as the labeled substrate. Typically, 100 μM DS-1-^32P (1000 cpm/nmol), 1 mg/ml cardiolipin, 50 mM Tris, pH 8.5, 5 mM ATP, 1% NP-40, and 5 mM MgCl2 are mixed with 0.5-500 μg/ml protein fraction and incubated at 30° C. for various times. Reactions were stopped by spotting a portion of the reaction onto a Silica Gel 60 thin layer chromatography plate. Plates were developed in chloroform:methanol:water:acetic acid (25:15:4:2, v/v) and analyzed as described above. Method II (which is not intended for the quantitative determination of specific activities) utilizes [γ-^32P] ATP (˜8×10^6 cpm/nmol) as the labeled substrate. The reaction conditions are exactly the same as for method I except that the ATP concentration is lowered to 0.6 μM and only non-radioactive DS-1-P (final concentration of 100 μM) is added. The reactions were stopped as described above, and plates were developed in chloroform:pyridine:formic acid:water (30:70:16:10, v/v).
Each lipid analog was tested as a 4′ kinase substrate using recombinant, overexpressed 4′ kinase in conjunction with the method II assay conditions (0.6 μM [γ-^32P]-ATP as the phosphate donor and 100 μM lipid acceptor). DS-1-P becomes phosphorylated to form [4′-^32P]-lipid IVA by BR7 membranes (containing wild-type kinase levels), but only with a yield of ˜0.5% (FIG. 11, lane 2). When BLR(DE3)pLysS/pJK2 membranes are used (FIG. 12, lane 7) more than 50% of the ^32P is incorporated into [4′-^32P]-lipid IVA. […] Products (b) and (c) are formed from base-treated DS-1-P and base treated 3-aza-DS-1-P, respectively.

T1 sequence (P27300 whole entry): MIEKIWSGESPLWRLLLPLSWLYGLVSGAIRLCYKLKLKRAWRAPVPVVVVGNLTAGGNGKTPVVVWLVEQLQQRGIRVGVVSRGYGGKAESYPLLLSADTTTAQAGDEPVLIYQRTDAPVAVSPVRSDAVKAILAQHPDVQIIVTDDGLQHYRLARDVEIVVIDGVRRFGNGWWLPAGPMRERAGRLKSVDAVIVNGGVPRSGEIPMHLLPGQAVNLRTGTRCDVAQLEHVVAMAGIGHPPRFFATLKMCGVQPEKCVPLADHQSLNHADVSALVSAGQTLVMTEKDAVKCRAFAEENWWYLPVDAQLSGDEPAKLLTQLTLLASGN

Row | Molecule | utilisation as substrate of the 4′ kinase (in words) | 32P from input [γ-32P]-ATP incorporated into 4′-phosphorylated product (yield) (BLR(DE3)pLysS/pJK2 membranes (recombinant, overexpressed 4′ kinase)) | 32P from input [γ-32P]-ATP incorporated into 4′-phosphorylated product (yield) (BR7 membranes (wild-type kinase levels)) [%]
1 | 2,3-diacyl-glucosamine-1-phosphate [Lipid X] | not substrates |  | 
2 | CCCCCCCCCCC[C@@H](O)CC(=O)N[C@H]1[C@H](OC[C@H]2O[C@H](OP(=O)(O)O)[C@H](NC(=O)C[C@H](O)CCCCCCCCCCC)[C@@H](OC(=O)C[C@H](O)CCCCCCCCCCC)[C@@H]2O)O[C@H](CO)[C@@H](O)[C@@H]1OC(=O)C[C@H](O)CCCCCCCCCCC [DS-1-P, tetraacyldisaccharide-1-phosphate] | large amount | more than 50% | ~0.5
3 | UDP-2,3-diacyl-glucosamine [UDP-diacylglucosamine] | not substrates |  | 
